Laboratory results published in ChEMBL document CHEMBL4382249, “1-Arylsulfonyl indoline-benzamides as a new antitubulin agents, with inhibition of histone deacetylase” (Eur J Med Chem, 2019).
Calls of active or inactive are those of the source. The rule behind the calls is not given here.

Tests used:
MKN-45 = test: Growth inhibition of human MKN45 cells after 48 hrs by SRB assay; format: functional, cell-based; conditions: MKN-45, 48 h
Histone deacetylase 4 = Histone deacetylase 4 (Homo sapiens, UniProt P56524); test: Inhibition of human HDAC4 using fluorogenic p53-derived peptide RHKK(Ac) as substrate by fluorescence assay
A549 = test: Antitumor activity against human A549 cells xenografted in Balb/c nude mouse assessed as tumor growth inhibition at 50 mg/kg, ip daily measured up to 18 days relative to control; format: functional; conditions: 432 h, read-out: TGI
[1] = Growth inhibition of human KB-7d cells after 48 hrs by SRB assay; format: functional; conditions: KB7D
BJAB [2] = test: Growth inhibition of human BJAB cells assessed as cell viability at 20 nM after 48 hrs by MTT assay (reference value: 100%)
BJAB [3] = test: Growth inhibition of human BJAB cells assessed as cell viability at 5 nM after 48 hrs by MTT assay (reference value: 100%)
[4] = Toxicity in nude Balb/c mouse xenografted with human A549 cells assessed as change in body weight at 50 mg/kg, ip daily measured up to 18 days; format: organism-based; conditions: in vivo, 432 h
BJAB [5] = test: Growth inhibition of human BJAB cells assessed as cell viability at 40 nM after 48 hrs by MTT assay (reference value: 100%)
[6] = Growth inhibition of human KB-S15 cells after 48 hrs by SRB assay; format: functional; conditions: KB-S15, 48 h
BJAB [7] = test: Growth inhibition of human BJAB cells assessed as cell viability at 80 nM after 48 hrs by MTT assay (reference value: 100%)
[8] = Growth inhibition of human KB-VIN10 cells after 48 hrs by SRB assay; format: functional; conditions: KB-VIN10, 48 h
Tubulin = Tubulin (Bos taurus, UniProt Q6B856+Q862L2+Q862F3)
[9] = target: T1, Protein deacetylase HDAC6 (Homo sapiens, UniProt Q9UBN7); test: Inhibition of human HDAC6 using RHKKAc as substrate by fluorescence assay
T1 sequence (Q9UBN7 whole entry): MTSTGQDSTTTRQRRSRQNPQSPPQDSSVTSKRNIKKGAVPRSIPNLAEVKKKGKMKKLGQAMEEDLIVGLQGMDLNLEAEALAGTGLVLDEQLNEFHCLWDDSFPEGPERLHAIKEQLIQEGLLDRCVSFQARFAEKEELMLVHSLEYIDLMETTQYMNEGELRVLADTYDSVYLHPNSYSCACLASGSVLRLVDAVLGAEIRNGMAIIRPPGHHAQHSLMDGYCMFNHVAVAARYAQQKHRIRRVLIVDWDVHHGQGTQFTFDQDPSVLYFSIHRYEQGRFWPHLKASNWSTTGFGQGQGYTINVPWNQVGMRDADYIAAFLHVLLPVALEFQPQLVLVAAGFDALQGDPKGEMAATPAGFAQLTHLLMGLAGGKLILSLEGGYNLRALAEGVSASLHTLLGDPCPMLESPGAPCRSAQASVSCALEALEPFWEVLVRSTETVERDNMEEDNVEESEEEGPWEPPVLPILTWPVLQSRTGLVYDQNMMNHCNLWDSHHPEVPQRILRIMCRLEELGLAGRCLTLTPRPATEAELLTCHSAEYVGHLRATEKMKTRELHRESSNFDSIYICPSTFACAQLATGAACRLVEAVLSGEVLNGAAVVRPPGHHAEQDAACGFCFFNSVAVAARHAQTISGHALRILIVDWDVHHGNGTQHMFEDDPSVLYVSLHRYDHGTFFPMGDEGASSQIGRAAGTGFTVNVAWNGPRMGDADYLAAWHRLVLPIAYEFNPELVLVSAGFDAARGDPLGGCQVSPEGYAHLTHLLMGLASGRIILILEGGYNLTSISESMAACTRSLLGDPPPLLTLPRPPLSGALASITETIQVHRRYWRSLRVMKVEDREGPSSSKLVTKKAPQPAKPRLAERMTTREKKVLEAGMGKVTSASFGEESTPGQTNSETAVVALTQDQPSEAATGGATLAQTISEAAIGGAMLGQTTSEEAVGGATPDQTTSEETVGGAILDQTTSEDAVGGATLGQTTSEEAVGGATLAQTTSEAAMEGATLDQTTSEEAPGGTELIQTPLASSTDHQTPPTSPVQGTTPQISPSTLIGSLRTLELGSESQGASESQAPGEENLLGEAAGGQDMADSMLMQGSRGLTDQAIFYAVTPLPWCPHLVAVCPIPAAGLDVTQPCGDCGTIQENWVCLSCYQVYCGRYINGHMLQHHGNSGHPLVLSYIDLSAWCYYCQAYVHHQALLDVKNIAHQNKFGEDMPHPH

Histone deacetylase 3 = Histone deacetylase 3 (Homo sapiens, UniProt O15379)
Histone deacetylase 8 = target: T2, Histone deacetylase 8 (Homo sapiens, UniProt Q9BY41)
T2 sequence (Q9BY41 whole entry): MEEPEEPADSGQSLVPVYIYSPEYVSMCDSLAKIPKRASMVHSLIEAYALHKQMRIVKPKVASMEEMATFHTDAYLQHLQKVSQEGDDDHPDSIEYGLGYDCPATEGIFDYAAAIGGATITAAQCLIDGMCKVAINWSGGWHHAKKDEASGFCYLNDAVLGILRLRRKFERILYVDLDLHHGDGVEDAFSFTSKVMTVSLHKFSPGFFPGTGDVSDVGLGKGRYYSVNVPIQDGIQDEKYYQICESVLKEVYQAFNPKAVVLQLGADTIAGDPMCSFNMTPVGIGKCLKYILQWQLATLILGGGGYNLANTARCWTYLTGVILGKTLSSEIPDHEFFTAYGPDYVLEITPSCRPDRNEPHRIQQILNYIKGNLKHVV

[10] = Toxicity in NOD/SCID mouse xenografted with human BJAB cells assessed as change in body weight at 50 mg/kg, iv daily for 5 days/week measured on day 25 post first dose; format: organism-based; conditions: in vivo, 120 h
BJAB [11] = test: Antitumor activity against human BJAB cells xenografted in NOD/SCID mouse assessed as tumor growth inhibition at 50 mg/kg, iv daily for 5 days/week measured on day 25 post first dose; format: functional, organism-based
Histone deacetylase 1 = Histone deacetylase 1 (Homo sapiens, UniProt Q13547); test: Inhibition of human HDAC1 using RHKKAc as substrate by fluorescence assay
Chain of Histone deacetylase 1 (Q13547 whole entry): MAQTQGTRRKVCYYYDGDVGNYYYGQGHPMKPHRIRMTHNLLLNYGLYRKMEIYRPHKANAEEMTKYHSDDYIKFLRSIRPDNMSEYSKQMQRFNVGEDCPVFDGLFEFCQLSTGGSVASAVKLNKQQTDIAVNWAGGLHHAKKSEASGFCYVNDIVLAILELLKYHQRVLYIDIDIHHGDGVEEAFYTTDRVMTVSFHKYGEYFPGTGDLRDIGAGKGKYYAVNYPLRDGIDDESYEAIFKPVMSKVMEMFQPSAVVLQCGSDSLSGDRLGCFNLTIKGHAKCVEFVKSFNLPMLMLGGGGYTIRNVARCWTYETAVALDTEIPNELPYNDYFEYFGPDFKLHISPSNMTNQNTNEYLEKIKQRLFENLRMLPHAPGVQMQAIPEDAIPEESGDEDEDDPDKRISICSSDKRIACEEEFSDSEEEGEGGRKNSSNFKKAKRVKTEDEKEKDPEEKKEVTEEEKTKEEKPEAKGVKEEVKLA

Chain of Histone deacetylase 4 (P56524 whole entry): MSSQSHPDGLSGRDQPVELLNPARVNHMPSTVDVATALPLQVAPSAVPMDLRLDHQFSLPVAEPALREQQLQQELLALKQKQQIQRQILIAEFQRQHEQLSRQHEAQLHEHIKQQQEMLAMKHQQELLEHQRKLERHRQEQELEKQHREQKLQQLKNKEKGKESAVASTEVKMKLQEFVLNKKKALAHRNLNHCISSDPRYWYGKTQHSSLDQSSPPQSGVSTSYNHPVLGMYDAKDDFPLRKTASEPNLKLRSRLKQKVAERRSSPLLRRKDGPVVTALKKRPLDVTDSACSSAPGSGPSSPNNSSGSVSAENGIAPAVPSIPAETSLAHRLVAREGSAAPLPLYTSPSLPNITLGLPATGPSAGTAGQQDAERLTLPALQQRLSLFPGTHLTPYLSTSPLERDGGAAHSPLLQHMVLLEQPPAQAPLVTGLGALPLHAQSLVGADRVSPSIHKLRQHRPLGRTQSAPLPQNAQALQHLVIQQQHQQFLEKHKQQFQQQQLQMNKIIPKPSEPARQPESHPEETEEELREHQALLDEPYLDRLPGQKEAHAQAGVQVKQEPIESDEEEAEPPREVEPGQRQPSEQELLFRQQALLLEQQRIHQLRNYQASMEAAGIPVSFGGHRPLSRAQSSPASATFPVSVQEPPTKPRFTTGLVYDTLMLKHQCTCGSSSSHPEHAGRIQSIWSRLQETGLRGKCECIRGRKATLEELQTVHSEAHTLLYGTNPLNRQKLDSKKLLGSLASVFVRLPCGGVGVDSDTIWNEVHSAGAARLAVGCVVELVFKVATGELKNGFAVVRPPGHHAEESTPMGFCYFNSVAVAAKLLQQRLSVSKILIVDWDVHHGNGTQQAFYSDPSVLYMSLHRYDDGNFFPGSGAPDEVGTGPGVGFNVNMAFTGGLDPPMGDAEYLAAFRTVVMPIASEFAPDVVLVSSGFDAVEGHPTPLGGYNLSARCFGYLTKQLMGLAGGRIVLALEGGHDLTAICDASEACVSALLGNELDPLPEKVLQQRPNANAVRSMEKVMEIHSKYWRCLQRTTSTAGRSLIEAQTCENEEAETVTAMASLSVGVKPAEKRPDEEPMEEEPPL
Chain of Histone deacetylase 3 (O15379 whole entry): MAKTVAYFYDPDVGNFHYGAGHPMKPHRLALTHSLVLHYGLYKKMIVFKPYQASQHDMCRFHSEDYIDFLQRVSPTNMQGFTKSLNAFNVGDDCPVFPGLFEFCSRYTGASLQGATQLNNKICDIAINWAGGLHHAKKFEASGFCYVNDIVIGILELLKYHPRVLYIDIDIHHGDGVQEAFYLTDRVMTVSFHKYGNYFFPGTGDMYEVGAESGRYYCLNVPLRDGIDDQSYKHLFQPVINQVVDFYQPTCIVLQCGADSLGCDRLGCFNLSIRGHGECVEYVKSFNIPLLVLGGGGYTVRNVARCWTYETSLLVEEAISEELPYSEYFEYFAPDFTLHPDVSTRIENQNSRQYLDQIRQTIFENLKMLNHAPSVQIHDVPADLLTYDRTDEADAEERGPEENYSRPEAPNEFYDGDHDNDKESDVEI

COc1ccc(S(=O)(=O)N2CCc3cccc(NCc4ccc(C(=O)Nc5ccccc5N)cc4)c32)cc1
IC50 (MKN-45): 63 nM | IC50 (Histone deacetylase 4): Not Active | inhibition in vivo at 50 mg/kg (A549): 62.9% | IC50 [1]: 46.6 nM | viability at 0.02 µM (BJAB [2]): 70% | viability at 0.005 µM (BJAB [3]): 71% | Activity [4]: Non-Toxic | viability at 0.04 µM (BJAB [5]): 50% | IC50 [6]: 43.9 nM | viability at 0.08 µM (BJAB [7]): 22% | IC50 [8]: 64.7 nM | IC50 (Tubulin): 1.1 µM | IC50 [9]: 314 nM | IC50 (Histone deacetylase 3): Not Active | IC50 (Histone deacetylase 8): Not Active | Activity [10]: Non-Toxic | TGI (BJAB [11]): Active | IC50 (Histone deacetylase 1): 221 nM
